Legend:
[1] = biological target: Tyrosine-protein kinase ABL1 (Homo sapiens) (UniProt P00519); experiment: Inhibition of Abl at 10 uM by HotSpot assay relative to control
[2] = test system: RAC-alpha serine/threonine-protein kinase (Homo sapiens), P31749 [S473D]; experiment: Inhibition of AKT1 dPH, S473D mutant at 10 uM by HotSpot assay relative to control
[3] = biological target: Aurora kinase A (Homo sapiens) (UniProt O14965); experiment: Inhibition of Aurora-A at 10 uM by HotSpot assay relative to control
Aurora kinase A (Homo sapiens), sequence (O14965 whole entry): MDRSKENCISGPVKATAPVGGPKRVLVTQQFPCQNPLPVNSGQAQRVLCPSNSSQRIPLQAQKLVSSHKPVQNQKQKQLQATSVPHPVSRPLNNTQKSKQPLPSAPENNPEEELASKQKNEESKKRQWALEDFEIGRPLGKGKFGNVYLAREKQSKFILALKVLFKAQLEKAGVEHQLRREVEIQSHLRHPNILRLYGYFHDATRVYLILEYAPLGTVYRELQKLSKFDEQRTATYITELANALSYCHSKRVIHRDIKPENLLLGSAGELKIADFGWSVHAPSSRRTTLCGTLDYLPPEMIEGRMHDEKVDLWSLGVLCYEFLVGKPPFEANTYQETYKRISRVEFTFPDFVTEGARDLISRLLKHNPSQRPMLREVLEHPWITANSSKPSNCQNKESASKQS

[4] = biological target: Serine/threonine-protein kinase B-raf (Homo sapiens) (UniProt P15056); experiment: Inhibition of BRAF at 10 uM by HotSpot assay relative to control
[5] = biological target: Cyclin-dependent kinase 1/cyclin B1 (Homo sapiens) (UniProt P06493+P14635); experiment: Inhibition of CDK1/Cyclin B at 10 uM by HotSpot assay relative to control; format: protein-complex assay
[6] = biological target: Serine/threonine-protein kinase Chk1 (Homo sapiens) (UniProt O14757); experiment: Inhibition of CHEK1 at 10 uM by HotSpot assay relative to control
Serine/threonine-protein kinase Chk1 (Homo sapiens), sequence (O14757 whole entry, canonical isoform): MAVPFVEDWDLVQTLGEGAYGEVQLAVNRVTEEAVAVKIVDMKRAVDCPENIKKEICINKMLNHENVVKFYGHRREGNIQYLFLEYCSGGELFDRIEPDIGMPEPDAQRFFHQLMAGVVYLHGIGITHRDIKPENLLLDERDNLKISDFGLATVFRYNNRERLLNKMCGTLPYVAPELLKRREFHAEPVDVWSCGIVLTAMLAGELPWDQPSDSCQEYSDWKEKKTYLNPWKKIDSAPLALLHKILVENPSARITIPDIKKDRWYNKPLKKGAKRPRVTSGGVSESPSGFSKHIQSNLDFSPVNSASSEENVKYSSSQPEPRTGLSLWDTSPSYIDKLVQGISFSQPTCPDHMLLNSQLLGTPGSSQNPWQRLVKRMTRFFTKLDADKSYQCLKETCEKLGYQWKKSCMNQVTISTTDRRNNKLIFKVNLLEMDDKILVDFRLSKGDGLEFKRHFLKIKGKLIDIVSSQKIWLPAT

[7] = biological target: Casein kinase I isoform epsilon (Homo sapiens) (UniProt P49674); experiment: Inhibition of CK1epsilon at 10 uM by HotSpot assay relative to control
Casein kinase I isoform epsilon (Homo sapiens), sequence (P49674 whole entry, looked up, canonical isoform): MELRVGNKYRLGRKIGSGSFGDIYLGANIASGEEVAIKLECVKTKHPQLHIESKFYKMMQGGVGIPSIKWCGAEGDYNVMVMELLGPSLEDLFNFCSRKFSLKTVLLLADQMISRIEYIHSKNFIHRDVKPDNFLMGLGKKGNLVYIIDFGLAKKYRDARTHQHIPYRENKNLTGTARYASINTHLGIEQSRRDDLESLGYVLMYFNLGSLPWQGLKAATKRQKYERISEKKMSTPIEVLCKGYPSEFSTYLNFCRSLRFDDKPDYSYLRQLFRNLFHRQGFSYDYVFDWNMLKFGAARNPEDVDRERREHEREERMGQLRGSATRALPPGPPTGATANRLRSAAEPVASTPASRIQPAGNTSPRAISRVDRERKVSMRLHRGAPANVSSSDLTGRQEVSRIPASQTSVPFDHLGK

[8] = biological target: Mast/stem cell growth factor receptor Kit (Homo sapiens) (UniProt P10721); experiment: Inhibition of c-kit at 10 uM by HotSpot assay relative to control
[9] = biological target: Hepatocyte growth factor receptor (Homo sapiens) (UniProt P08581); experiment: Inhibition of c-MET at 10 uM by HotSpot assay relative to control
[10] = biological target: Proto-oncogene tyrosine-protein kinase Src (Homo sapiens) (UniProt P12931); experiment: Inhibition of c-Src at 10 uM by HotSpot assay relative to control
[11] = biological target: Death-associated protein kinase 1 (Homo sapiens) (UniProt P53355); experiment: Inhibition of DAPK1 at 10 uM by HotSpot assay relative to control
[12] = biological target: DNA-dependent protein kinase catalytic subunit (Homo sapiens) (UniProt P78527); experiment: Inhibition of DNA-PK at 10 uM by HotSpot assay relative to control
[13] = biological target: Epidermal growth factor receptor (Homo sapiens) (UniProt P00533); experiment: Inhibition of EGFR at 10 uM by HotSpot assay relative to control
[14] = biological target: Ephrin type-A receptor 1 (Homo sapiens) (UniProt P21709); experiment: Inhibition of EPHA1 at 10 uM by HotSpot assay relative to control
[15] = biological target: Fibroblast growth factor receptor 1 (Homo sapiens) (UniProt P11362); experiment: Inhibition of FGFR1 at 10 uM by HotSpot assay relative to control
[16] = biological target: Tyrosine-protein kinase Fgr (Homo sapiens) (UniProt P09769); experiment: Inhibition of FGR at 10 uM by HotSpot assay relative to control
[17] = biological target: Vascular endothelial growth factor receptor 1 (Homo sapiens) (UniProt P17948); experiment: Inhibition of FLT1 at 10 uM by HotSpot assay relative to control
Vascular endothelial growth factor receptor 1 (Homo sapiens), sequence (P17948 whole entry): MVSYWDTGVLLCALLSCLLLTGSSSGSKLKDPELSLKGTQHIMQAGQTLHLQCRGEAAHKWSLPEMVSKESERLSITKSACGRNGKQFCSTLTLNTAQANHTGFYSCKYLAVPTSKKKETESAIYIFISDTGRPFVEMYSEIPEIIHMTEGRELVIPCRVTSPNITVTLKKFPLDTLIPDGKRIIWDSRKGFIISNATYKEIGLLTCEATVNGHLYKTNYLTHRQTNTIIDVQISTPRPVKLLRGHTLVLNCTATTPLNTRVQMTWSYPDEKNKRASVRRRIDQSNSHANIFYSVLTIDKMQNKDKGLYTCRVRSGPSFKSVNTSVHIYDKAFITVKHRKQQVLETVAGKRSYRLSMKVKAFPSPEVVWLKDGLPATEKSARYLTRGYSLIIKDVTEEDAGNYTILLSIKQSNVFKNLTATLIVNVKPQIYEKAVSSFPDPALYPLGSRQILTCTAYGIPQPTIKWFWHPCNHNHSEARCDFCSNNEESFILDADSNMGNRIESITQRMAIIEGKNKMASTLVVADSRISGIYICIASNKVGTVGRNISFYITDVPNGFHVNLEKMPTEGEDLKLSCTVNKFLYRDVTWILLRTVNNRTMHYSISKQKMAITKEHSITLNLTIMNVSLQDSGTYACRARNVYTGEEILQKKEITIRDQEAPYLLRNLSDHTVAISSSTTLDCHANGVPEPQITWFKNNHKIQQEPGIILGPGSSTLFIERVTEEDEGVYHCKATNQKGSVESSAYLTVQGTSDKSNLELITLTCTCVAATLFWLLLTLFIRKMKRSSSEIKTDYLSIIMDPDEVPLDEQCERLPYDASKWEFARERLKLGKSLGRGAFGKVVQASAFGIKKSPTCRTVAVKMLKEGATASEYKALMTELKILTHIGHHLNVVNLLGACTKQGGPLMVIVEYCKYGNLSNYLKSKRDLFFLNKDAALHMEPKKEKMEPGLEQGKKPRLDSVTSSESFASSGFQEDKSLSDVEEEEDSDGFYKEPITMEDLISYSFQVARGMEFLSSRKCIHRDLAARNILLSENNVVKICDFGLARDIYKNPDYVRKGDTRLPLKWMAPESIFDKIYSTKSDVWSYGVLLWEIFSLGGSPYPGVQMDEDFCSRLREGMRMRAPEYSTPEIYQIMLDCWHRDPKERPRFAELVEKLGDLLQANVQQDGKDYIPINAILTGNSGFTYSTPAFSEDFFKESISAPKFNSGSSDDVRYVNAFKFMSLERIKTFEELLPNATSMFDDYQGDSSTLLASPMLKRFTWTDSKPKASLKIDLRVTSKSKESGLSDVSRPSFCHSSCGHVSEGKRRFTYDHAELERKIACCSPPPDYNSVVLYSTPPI

[18] = biological target: Tyrosine-protein kinase Fyn (Homo sapiens) (UniProt P06241); experiment: Inhibition of FYN at 10 uM by HotSpot assay relative to control
[19] = biological target: Homeodomain-interacting protein kinase 1 (Homo sapiens) (UniProt Q86Z02); experiment: Inhibition of HIPK1 at 10 uM by HotSpot assay relative to control
[20] = biological target: Inhibitor of nuclear factor kappa-B kinase subunit alpha (Homo sapiens) (UniProt O15111); experiment: Inhibition of IKK-alpha at 10 uM by HotSpot assay relative to control
[21] = biological target: Insulin receptor (Homo sapiens) (UniProt P06213); experiment: Inhibition of IR at 10 uM by HotSpot assay relative to control
[22] = biological target: Tyrosine-protein kinase JAK1 (Homo sapiens) (UniProt P23458); experiment: Inhibition of JAK1 at 10 uM by HotSpot assay relative to control
[23] = biological target: Mitogen-activated protein kinase 8 (Homo sapiens) (UniProt P45983); experiment: Inhibition of JNK1-alpha-1 at 10 uM by HotSpot assay relative to control
[24] = biological target: Vascular endothelial growth factor receptor 2 (Homo sapiens) (UniProt P35968); experiment: Inhibition of VEGFR2 at 10 uM by HotSpot assay relative to control
[25] = biological target: Tyrosine-protein kinase Lck (Homo sapiens) (UniProt P06239); experiment: Inhibition of LCK at 10 uM by HotSpot assay relative to control
Tyrosine-protein kinase Lck (Homo sapiens), sequence (P06239 2-509 limits assumed): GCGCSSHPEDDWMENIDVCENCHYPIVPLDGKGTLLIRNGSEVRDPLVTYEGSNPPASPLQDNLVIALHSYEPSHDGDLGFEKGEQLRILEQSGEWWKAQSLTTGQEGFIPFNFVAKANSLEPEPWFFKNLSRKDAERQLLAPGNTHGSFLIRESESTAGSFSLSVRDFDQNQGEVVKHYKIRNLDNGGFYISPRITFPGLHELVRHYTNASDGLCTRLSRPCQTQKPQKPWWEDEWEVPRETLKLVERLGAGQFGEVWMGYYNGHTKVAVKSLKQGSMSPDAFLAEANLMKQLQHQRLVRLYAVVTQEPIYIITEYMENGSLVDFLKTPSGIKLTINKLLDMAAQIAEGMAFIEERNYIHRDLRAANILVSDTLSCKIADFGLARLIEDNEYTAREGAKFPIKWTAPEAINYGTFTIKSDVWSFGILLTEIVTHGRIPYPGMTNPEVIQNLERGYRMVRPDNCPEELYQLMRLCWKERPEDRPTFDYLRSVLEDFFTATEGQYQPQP

[26] = biological target: Tyrosine-protein kinase Lyn (Homo sapiens) (UniProt P07948); experiment: Inhibition of LYN at 10 uM by HotSpot assay relative to control
[27] = biological target: Dual specificity mitogen-activated protein kinase kinase 1 (Homo sapiens) (UniProt Q02750); experiment: Inhibition of MEK1 at 10 uM by HotSpot assay relative to control
[28] = biological target: Serine/threonine-protein kinase 26 (Homo sapiens) (UniProt Q9P289); experiment: Inhibition of MST4 at 10 uM by HotSpot assay relative to control
[29] = biological target: Muscle, skeletal receptor tyrosine-protein kinase (Homo sapiens) (UniProt O15146); experiment: Inhibition of MUSK at 10 uM by HotSpot assay relative to control
[30] = biological target: Mitogen-activated protein kinase 14 (Homo sapiens) (UniProt Q16539); experiment: Inhibition of p38-alpha at 10 uM by HotSpot assay relative to control
Mitogen-activated protein kinase 14 (Homo sapiens), sequence (Q16539 whole entry): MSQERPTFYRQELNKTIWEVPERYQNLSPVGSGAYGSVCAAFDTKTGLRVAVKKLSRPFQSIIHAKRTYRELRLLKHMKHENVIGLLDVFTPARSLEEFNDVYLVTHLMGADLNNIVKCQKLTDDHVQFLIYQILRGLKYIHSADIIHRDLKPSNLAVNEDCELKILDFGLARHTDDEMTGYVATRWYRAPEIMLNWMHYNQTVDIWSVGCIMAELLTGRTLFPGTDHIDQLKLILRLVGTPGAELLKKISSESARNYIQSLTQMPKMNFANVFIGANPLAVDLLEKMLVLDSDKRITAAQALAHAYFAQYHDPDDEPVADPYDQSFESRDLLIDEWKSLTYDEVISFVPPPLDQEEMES

[31] = biological target: Ribosomal protein S6 kinase beta-1 (Homo sapiens) (UniProt P23443); experiment: Inhibition of p70S6K at 10 uM by HotSpot assay relative to control
[32] = biological target: Serine/threonine-protein kinase PAK 4 (Homo sapiens) (UniProt O96013); experiment: Inhibition of PAK4 at 10 uM by HotSpot assay relative to control
[33] = biological target: Serine/threonine-protein kinase pim-1 (Homo sapiens) (UniProt P11309); experiment: Inhibition of PIM1 at 10 uM by HotSpot assay relative to control
[34] = biological target: Protein kinase C alpha type (Homo sapiens) (UniProt P17252); experiment: Inhibition of PKCalpha at 10 uM by HotSpot assay relative to control
[35] = biological target: Serine/threonine-protein kinase PLK1 (Homo sapiens) (UniProt P53350); experiment: Inhibition of PLK1 at 10 uM by HotSpot assay relative to control
[36] = biological target: RAF proto-oncogene serine/threonine-protein kinase (Homo sapiens) (UniProt P04049); experiment: Inhibition of RAF1 at 10 uM by HotSpot assay relative to control
[37] = biological target: Proto-oncogene tyrosine-protein kinase receptor Ret (Homo sapiens) (UniProt P07949); experiment: Inhibition of RET at 10 uM by HotSpot assay relative to control
[38] = biological target: Rho-associated protein kinase 1 (Homo sapiens) (UniProt Q13464); experiment: Inhibition of ROCK-I at 10 uM by HotSpot assay relative to control
Rho-associated protein kinase 1 (Homo sapiens), sequence (Q13464 2-1354 limits assumed): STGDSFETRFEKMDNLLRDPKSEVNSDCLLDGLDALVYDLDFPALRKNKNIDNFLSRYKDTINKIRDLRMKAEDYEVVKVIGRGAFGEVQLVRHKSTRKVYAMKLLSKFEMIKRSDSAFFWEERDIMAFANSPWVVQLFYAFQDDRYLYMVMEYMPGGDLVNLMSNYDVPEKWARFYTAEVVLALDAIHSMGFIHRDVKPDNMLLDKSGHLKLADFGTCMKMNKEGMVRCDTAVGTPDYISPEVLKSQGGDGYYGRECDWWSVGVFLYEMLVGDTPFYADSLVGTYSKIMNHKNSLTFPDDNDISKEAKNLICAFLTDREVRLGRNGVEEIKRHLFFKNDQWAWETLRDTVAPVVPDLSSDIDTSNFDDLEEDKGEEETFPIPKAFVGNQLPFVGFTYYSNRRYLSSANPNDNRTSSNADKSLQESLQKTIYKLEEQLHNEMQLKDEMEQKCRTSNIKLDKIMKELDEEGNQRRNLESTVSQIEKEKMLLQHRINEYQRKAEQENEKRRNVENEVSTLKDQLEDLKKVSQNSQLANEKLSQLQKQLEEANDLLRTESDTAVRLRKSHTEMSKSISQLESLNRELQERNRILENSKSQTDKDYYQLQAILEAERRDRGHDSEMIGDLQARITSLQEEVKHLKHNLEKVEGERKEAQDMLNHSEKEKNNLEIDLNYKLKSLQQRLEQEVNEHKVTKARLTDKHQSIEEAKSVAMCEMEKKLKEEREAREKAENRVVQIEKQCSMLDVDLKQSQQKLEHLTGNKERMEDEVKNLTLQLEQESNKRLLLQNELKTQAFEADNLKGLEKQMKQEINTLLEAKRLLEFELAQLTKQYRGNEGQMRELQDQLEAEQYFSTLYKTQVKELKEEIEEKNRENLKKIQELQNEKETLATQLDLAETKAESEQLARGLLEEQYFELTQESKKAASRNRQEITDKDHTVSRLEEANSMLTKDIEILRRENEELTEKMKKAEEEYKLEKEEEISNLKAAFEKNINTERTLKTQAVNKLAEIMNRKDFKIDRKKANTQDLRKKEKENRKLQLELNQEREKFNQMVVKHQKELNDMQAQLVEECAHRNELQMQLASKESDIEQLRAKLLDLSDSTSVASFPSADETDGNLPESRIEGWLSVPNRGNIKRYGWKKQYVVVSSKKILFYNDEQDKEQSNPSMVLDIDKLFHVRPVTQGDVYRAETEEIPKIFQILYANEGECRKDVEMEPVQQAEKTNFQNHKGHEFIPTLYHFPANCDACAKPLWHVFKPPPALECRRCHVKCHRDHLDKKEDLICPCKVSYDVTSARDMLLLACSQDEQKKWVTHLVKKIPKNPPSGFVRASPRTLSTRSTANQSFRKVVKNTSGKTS

[39] = biological target: Macrophage-stimulating protein receptor (Homo sapiens) (UniProt Q04912); experiment: Inhibition of MST1R at 10 uM by HotSpot assay relative to control
[40] = biological target: Proto-oncogene tyrosine-protein kinase ROS (Homo sapiens) (UniProt P08922); experiment: Inhibition of ROS1 at 10 uM by HotSpot assay relative to control
[41] = biological target: Tyrosine-protein kinase SYK (Homo sapiens) (UniProt P43405); experiment: Inhibition of SYK at 10 uM by HotSpot assay relative to control
[42] = biological target: Angiopoietin-1 receptor (Homo sapiens) (UniProt Q02763); experiment: Inhibition of TIE2 at 10 uM by HotSpot assay relative to control
[43] = biological target: High affinity nerve growth factor receptor (Homo sapiens) (UniProt P04629); experiment: Inhibition of TRKA at 10 uM by HotSpot assay relative to control
[44] = biological target: Tyrosine-protein kinase Yes (Homo sapiens) (UniProt P07947); experiment: Inhibition of YES at 10 uM by HotSpot assay relative to control
[45] = biological target: Focal adhesion kinase 1 (PTK2/FAK) (Homo sapiens) (UniProt Q05397); experiment: Inhibition of PTK2 at 10 uM by HotSpot assay relative to control

inhibition [1]: 20.4%
inhibition [2]: -2.97%
inhibition [3]: 21.8%
inhibition [4]: 8.97%
inhibition [5]: 3.64%
inhibition [6]: 2.36%
inhibition [7]: 9.32%
inhibition [8]: 2.85%
inhibition [9]: 5.82%
inhibition [10]: 16.2%
inhibition [12]: 6.56%
inhibition [13]: -2.23%
inhibition [14]: 23.3%
inhibition [15]: -8.05%
inhibition [16]: 3.34%
inhibition [17]: -1.67%
inhibition [18]: -7.86%
inhibition [19]: -3.43%
inhibition [20]: 1.37%
inhibition [21]: 7.01%
inhibition [22]: 9.15%
inhibition [23]: 3.83%
inhibition [24]: -5.84%
inhibition [25]: 10.3%
inhibition [26]: -1.45%
inhibition [27]: -6.97%
inhibition [28]: -1.54%
inhibition [29]: -0.42%
inhibition [30]: 5.27%
inhibition [31]: 5.79%
inhibition [32]: 1.37%
inhibition [33]: 5.91%
inhibition [34]: 9.23%
inhibition [35]: 5.85%
inhibition [36]: 20.4%
inhibition [37]: 6.65%
inhibition [38]: 11.7%
inhibition [39]: 28.8%
inhibition [40]: 93.9%
inhibition [41]: 8.23%
inhibition [42]: 8.17%
inhibition [43]: -0.14%
inhibition [44]: -2.59%
inhibition [45]: 3.43%
SMILES: Cc1cc(O)cc(-c2nn(CC#N)cc2-c2cc(NC[C@H](C)O)nc(-c3cccnc3)n2)c1
inhibition [11]: -1.17%
